# According to patent publication US9505735B2, “Compounds for treating infectious diseases” (Whitehead Institute for Biomedical Research, priority 2012, dated 2016):
# Where “and” joins values, the source holds several entries; their conditions need not be identical. Equal values may be shown once. Read-outs that look alike come from different tables or passages of the source.
# How the values were obtained:
# Gwt1 = biological target: T1, Gwt1 (Saccharomyces cerevisiae, UniProt P47026); assay: Antifungal susceptibility testing, screening strains with plasmid-borne GWT1 (low or high copy); type: cell-based, S. cerevisiae
# T1 construct: Wildtype S. cerevisiae BY4741; endogenous in cells; host or cells: S. cerevisiae BY4741 (wild type)
# T1 sequence (P47026 1-490): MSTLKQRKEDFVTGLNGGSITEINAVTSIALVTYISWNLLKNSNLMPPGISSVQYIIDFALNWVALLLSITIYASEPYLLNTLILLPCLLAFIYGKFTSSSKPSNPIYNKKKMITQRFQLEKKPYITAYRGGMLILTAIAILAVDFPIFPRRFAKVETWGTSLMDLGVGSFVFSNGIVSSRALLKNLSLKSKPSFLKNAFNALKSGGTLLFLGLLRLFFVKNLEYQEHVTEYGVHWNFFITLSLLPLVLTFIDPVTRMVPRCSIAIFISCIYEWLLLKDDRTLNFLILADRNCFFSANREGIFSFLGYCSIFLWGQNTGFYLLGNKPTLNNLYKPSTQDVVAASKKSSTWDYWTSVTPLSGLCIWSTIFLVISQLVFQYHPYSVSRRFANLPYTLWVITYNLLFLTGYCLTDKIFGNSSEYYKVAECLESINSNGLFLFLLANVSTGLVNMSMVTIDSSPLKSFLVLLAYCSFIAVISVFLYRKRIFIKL
# Procedure: (§1) Sensitivity to gepinacin was determined in 96-well, flat bottom microtiter plates using a modification of the NCCLS broth microdilution protocol CLS M27-A3 and RPMI as culture medium. Fungi were inoculated at ˜10^3 cells per ml and incubated for 48 hours at 37° C. after which plates were sealed, shaken and the optical density read at 600 nm (OD600) on a Tecan Safire 2 plate reader. All samples were run in duplicate or triplicate and assays were repeated at least once. Results are expressed as fraction of growth in the absence of compound and the mean and standard deviation are plotted. For the mold A. terreus, inoculum was 10^4 cells per ml and plates were incubated at 35° C. for 48 hours in the dark. Plates were then visually scored as specified by CLSI document M38-A2 to determine the MIC50 and MIC80.
# Because GWT1 deletion is lethal in S. cerevisiae strain BY4741, a haploid shuttle strain was constructed in which the genomic copy of GWT1 was deleted and replaced by GWT1 on a plasmid that also encoded the URA3 gene and a G418-resistance gene. To construct this shuttle strain a gwt1Δ/GWT1 heterozygous deletion mutant was transformed with pAGGPD416-GWT1, sporulated and dissected. A colony was selected that grew on both SD-URA and G418-containing plates. PCR with the deletion specific primers (http://wwwsequence.stanford.edu/group/yeast_deletion_project/deletions3.html) was performed to confirm the GWT1 deletion. To change the source of GWT, this shuttle strain was transformed with plasmids containing GWT1 (as a control) or PIG-W and the LEU2 auxotrophy gene followed by selection for growth on SD-LEU plates. Plasmids were constructed by conventional Gateway technology using a GWT1 encoding entry vector and either pAG415GPDccdB or pAG425GPDccdB as the destination vectors. Positive colonies were selected and grown on 5-fluoroorotic acid (5-FOA)-containing plates to promote loss of the pAGGPD416-GWT1 plasmid. The colonies from this plate were then tested for return of uridine auxotrophy to confirm pAGGPD416-GWT1 loss. The PIG-W expression vector was constructed by recombination in yeast as follows. The pAG415GPDccdB vector was cut with Xho1 and Xba1 and the larger piece was gel and column purified. The coding sequence of PIG-W was PCR amplified from the entry clone so that it would have ends facilitating recombination with the cut vector. The shuttle strain was then transformed with these two DNA fragments and plated on SD-LEU plates to select for recombinants. PIG-W plasmid was isolated from the final strain and sequence verified.
# (§2) The following gepinacin analogs were tested for activity against Gwt1. Gepinacin, M3, CM2, CM4, CM6, CM7, CM8, and 857621-56-8 were available commercially. The compounds were tested using the “Antifungal Susceptibility Testing” protocol described above. Fungi tested are described in the “Fungal Strains” section above.
# An S. cerevesiae strain was generated in which the endogenous Gwt1 gene was deleted. Plasmids (either high copy or low copy) with either S. cerevesiae or human Gwt1 were introduced to produce strains bearing such plasmids expressing either S. cerevesiae or human Gwt1 from a constitutive promoter. Yeast strains were cultured in liquid media in the presence of indicated compounds. Shown in FIGS. 22A-D show the effect of the indicated compounds on growth (assessed by OD600) and viability (assessed using Bactiter Glo) of the yeast strain with high copy or low copy plasmid containing S. cerevesiae Gwt1. The compounds had no effect on strains with the human Gwt1, thus showing the compounds' sensitivity for the fungal (yeast) Gwt1 gene.
# [1] = test system: Wildtype S. cerevisiae BY4741; assay: Antifungal susceptibility testing, wildtype yeast; type: cell-based; settings: Saccharomyces cerevisiae, read-out: EC50 Avg
# Procedure: Archives of all strains were maintained in 25% glycerol at −80° C. Standard S. cerevisiae lab strains W303, BY4741, BY4742 and BY4743 were used for experiments. The C. albicans wild type strain in FIG. 1 was CaI4, a standard laboratory strain (Fonzi, et al. (1993) Genetics 134, 717-728). The C. albicans fluconazole-resistant strains CaCi-2, CaCi-8 and CaCi17 were generously provided by Ted White and originally collected by Spencer Redding and colleagues (White, (1997) Antimicrob Agents Chemother 41, 1488-1494; White, (1997) Antimicrob Agents Chemother 41, 1482-1487; White, et al. (1997) Oral Dis 3 Suppl 1, S102-109). The sequenced C. albicans wild type strain, Sc5314 (Gillum, et al. (1984) Mol Gen Genet 198, 179-182) used in P-glucan experiments was a gift from John Perfect's lab. CaAmphR, an amphotericin B-resistant strain is from ATCC (#20095). Caspofungin-resistant strain Cfr1 was derived by plating Sc5314 on caspofungin plates and isolating resistant colonies. A. terreus was purchased from ATCC (MYA-3633). The C. glabrata strain CgL5c was obtained from John Bennett's lab. The YKO heterozygous diploid strain collection is from Open Biosystems and was generated in BY4743. Haploid deletion strains were from the Yeast Knock-out Deletion Collection and purchased from Invitrogen. The over-expression library was made by transforming BY4741 with the Harvard Institute of Proteomics Flexgene library.
# as §1, §2
# PIG-W = biological target: T2, PIG-W (Homo sapiens, UniProt Q7Z7B1); assay: Growth of S. cerevisiae strain whose GWT1 is replaced by the human gene PIG-W; type: cell-based
# T2 construct: expressed in transfected cells; host or cells: S. cerevisiae BY4741-derived gwt1 deletion shuttle strain carrying a pAG415GPD-based PIG-W plasmid
# T2 sequence (Q7Z7B1 1-504): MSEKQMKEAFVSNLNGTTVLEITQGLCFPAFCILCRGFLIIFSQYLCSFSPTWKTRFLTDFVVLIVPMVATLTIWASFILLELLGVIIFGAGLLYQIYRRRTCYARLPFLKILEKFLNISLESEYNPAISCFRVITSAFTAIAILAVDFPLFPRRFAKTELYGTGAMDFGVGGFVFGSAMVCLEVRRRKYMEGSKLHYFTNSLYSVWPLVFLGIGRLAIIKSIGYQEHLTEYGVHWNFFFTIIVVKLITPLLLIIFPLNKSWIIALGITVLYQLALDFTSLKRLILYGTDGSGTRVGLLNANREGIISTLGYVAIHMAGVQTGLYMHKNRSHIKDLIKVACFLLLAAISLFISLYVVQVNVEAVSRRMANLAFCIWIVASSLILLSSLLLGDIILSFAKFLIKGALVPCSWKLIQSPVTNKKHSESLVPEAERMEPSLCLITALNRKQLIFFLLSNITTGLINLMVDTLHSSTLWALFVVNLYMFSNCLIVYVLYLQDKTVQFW
# Procedure: as §1
# Because GWT1 deletion is lethal in S. cerevisiae strain BY4741, a haploid shuttle strain was constructed in which the genomic copy of GWT1 was deleted and replaced by GWT1 on a plasmid that also encoded the URA3 gene and a G418-resistance gene. […]
# An S. cerevesiae strain was generated in which the endogenous Gwt1 gene was deleted. […] Shown in FIGS. 22A-D show the effect of the indicated compounds on growth (assessed by OD600) and viability (assessed using Bactiter Glo) of the yeast strain with high copy or low copy plasmid containing S. cerevesiae Gwt1. […]
# [2] = test system: unfolded protein response; assay: Unfolded protein response GFP reporter (UPRE-GFP), flow cytometry; type: cell-based, S. cerevisiae; settings: 5 hours
# Procedure: Induction of the unfolded protein response in cells carrying a GFP reporter construct was monitored by flow cytometry after exposure to serial dilutions of the indicated compounds for 5 hrs.
# The plasmid pRS304-4XUPRE-GFP was linearized and integrated into the TRP1 locus of S. cerevisiae (W303) to construct a reporter strain as previously described (Cox, et al. (1993) Cell 73, 1197-1206; Pollard, et al. (1998) Mol Cell 1, 171-182). Reporter cells were grown to log phase and exposed to compound at 23° C. for 5 hours before analysis. GFP reporter induction was monitored on a Guava EasyCyte Plus cytometer. The average mean channel fluorescence of duplicate samples was determined, and the experiment was performed twice with similar results.
# [3] = test system: S. cerevisiae strains deleted for IRE1 or HAC1; assay: Antifungal susceptibility testing of UPR-deficient strains; type: cell-based; settings: 48 hour
# Procedure: (§3) (A) Immunoblots of lysates prepared from S. cerevisiae treated with gepinacin showing GPI-anchor-selective impairment of protein maturation. The unprocessed (u), precursor (p), and mature (m) forms of the reporter proteins are indicated. The identity of the tagged reporter proteins (top of panel) and the antibodies used for their detection (bottom of panel) are also indicated. Treatment conditions are DMSO (0.05%), gepinacin (GPN, 10 μM) or tunicamycin (Tun, 10 μM). The same lysate was used for both blots. […] GFP expression was monitored by flow cytometry. (C) Anti-fungal susceptibility testing of strains deleted for IRE1 (activator of the UPR) or HAC1 (effector of the UPR) showing their increased sensitivity to gepinacin.
# Anti-fungal susceptibility testing of strains bearing deletion of IRE1 (activator of the UPR) or HAC1 (effector of the UPR) using either […] (A) or fluconazole (B). Growth was measured by OD600 after 48 hour exposure to serial dilutions of the compounds as indicated. Results are expressed as a fraction of the OD600 measured in the absence of gepinacin. The mean and standard deviation of triplicate determinations are shown.
# Gas1 and CPY maturation = assay: Protein trafficking analysis (immunoblot of reporter proteins); type: cell-based, S. cerevisiae; settings: 10 μM, 1 hour
# Procedure: as §3
# HA-tagged GAS1 was expressed in strain BY4741 CPY-GFP (Yeast GFP collection (Huh, et al. (2003) Nature 425, 686-691) under control of its own promoter using plasmid pCM-HA-GAS1. This construct was created as previously reported except in a gateway plasmid backbone (Fujita, et al. (2006) Mol Biol Cell 17, 834-850). To assess effects on trafficking, strains were incubated for 1 hour at 30° C. with test compounds. Total cellular protein (5 μg) was separated by electrophoresis (Invitrogen 8% gels) and transferred to nitrocellulose membranes. Blots were hybridized with antibodies against HA (Covance), GFP (Roche), or CPY (Invitrogen). Sizes for the various post-translationally modified products of Gas1HA2 and CPY have been previously reported (Fujita, et al. (2006) Mol Biol Cell 17, 834-850). CPY-GFP was used to facilitate discrimination of CPY processing steps because GFP is cleaved from CPY in the yeast vacuole. The experiment, however, was also performed with untagged CPY with the same results.
# [4] = EC50 High Copy GWT1, Screening strains, high copy GWT1 plasmid
# [5] = EC50 Low Copy GWT1, Screening strains, low copy GWT1 plasmid
Compound,EC50 (Gwt1; [4]),EC50 (Gwt1; [5]) [µM],activation of the unfolded protein response (GFP reporter) [2],also measured
CC(C)COc1cccc(OCC(=O)Nc2ccc(F)cc2)c1 [CM2],3.07 µM,1.16,,EC50 ([1]; Wildtype S. cerevisiae BY4741): 7.05 µM
CC(C)COc1cccc(OCC(=O)Nc2ccc(N(C)C)cc2)c1 [CM3],,,,EC50 [1]: 18.2 µM
COc1ccc(NC(=O)COc2cccc(OCCC(C)C)c2)cc1 [CM7],6.2 µM,1.31,,EC50 ([1]; Wildtype S. cerevisiae BY4741): 2.65 µM
COc1ccc(NC(=O)COc2cccc(OCC(C)C)c2)cc1 [LW16],1.17 µM and 1.89 µM and 8.6 µM,,,EC50 ([1]; Wildtype S. cerevisiae BY4741): 2.9 µM
COc1ccc(NC(=O)C(C)Oc2cccc(OCc3ccccc3)c2)cc1 (stereo not drawn) [MAZ1844],,,,activity against Gwt1 (Gwt1): not Gwt1; activity against PigW / in the PIG-W expressing strain (PIG-W): active
COc1ccc(NC(=O)C(C)Oc2cccc(OCC(C)C)c2)cc1 (stereo not drawn) [MAZ1855],93.1 µM,12.8,,
COc1ccc(NC(=O)COc2cccc(OCc3ccccc3)c2)cc1 [MAZ1857],268 µM,177,,
COc1ccc(NC(=O)COc2cccc(Oc3ccccn3)c2)cc1 [MAZ1859],7.2 µM,4.9,,
C[C@@H]1[C@H](O)[C@@H](C)/C=C/C=C/C=C/C=C/C=C/C=C/C=C/[C@H](O[C@@H]2O[C@H](C)[C@@H](O)[C@H](N)[C@@H]2O)C[C@@H]2O[C@](O)(C[C@@H](O)C[C@@H](O)[C@H](O)CC[C@@H](O)C[C@@H](O)CC(=O)O[C@H]1C)C[C@H](O)[C@H]2C(=O)O [amphotericin B],,,not seen,
CC[C@H](C)C[C@H](C)CCCCCCCCC(=O)N[C@H]1C[C@@H](O)[C@@H](NCCN)NC(=O)[C@@H]2[C@@H](O)CCN2C(=O)[C@H]([C@H](O)CCN)NC(=O)[C@H]([C@H](O)[C@@H](O)c2ccc(O)cc2)NC(=O)[C@@H]2C[C@@H](O)CN2C(=O)[C@H]([C@@H](C)O)NC1=O [caspofungin],,,not seen,
"OC(Cn1cncn1)(Cn1cncn1)c1ccc(F)cc1F [fluconazole, reference compound]",,,not seen,change of toxicity by deletion of HAC1 or IRE1 [3]: completely unaffected
tunicamycin [reference compound],,,Strong induction,CPY (not GPI-anchored) processing (Gas1 and CPY maturation): alters the processing of both proteins; Gas1 (GPI-anchored) maturation: mature versus precursor form (Gas1 and CPY maturation): alters the processing of both proteins
